{"source": "patent US20230391808A1", "about": "“PHOSPHAPHENALENE-GOLD(I) COMPLEXES AS CHEMOTHERAPEUTIC AGENTS AGAINST GLIOBLASTOMA” (priority 2020, published 2023)", "key": {"[1]": {"system": "NCH82", "test": "Crystal violet proliferation assay, NCH82", "format": "cell-based, human", "settings": "glioblastoma cell line, 48 h exposure, mean of three biological replicates ± standard deviation"}, "[2]": {"system": "NCH89", "test": "Crystal violet proliferation assay, NCH89", "format": "cell-based, human", "settings": "glioblastoma cell line, 48 h exposure, mean of three biological replicates ± standard deviation"}, "[3]": {"system": "NCH149", "test": "Crystal violet proliferation assay, NCH149", "format": "cell-based, human", "settings": "glioblastoma cell line, 48 h exposure, mean of three biological replicates ± standard deviation", "experimental": "In order to investigate the role of the fused phosphaphenalene ring in the bio-activity of the drug, the ability of Compound 5 to inhibit cell proliferation in the glioblastoma cell lines NCH82, NCH89 and NCH149 was examined. For this purpose, cells were incubated with increasing concentrations of Compound 5 and cell proliferation was evaluated by crystal violet assay.\nThe effect of different compounds on cell growth was evaluated by the crystal violet method as described earlier (J. P. Rigalli et al., Cancer Lett. 2016, 376, 165-172). Briefly, cells were seeded in 96-well plates (10,000 cells/well). After 24 h cell culture medium was replaced by fresh compound-containing medium (ten different concentrations (0.01 to 200 μM μM)). After 48 h of exposure extent of cell proliferation inhibition was determined by crystal violet staining of surviving cells. Therefore, cells were washed and stained with 0.5% crystal violet solution (2.5 g in 100 ml methanol, diluted with 400 ml aqua bidest) for 15 min, rinsed and dried overnight.\n(§1) Next, crystal violet was solubilized in methanol and absorbance was measured at 555 nm. The proliferative index was calculated as crystal violet absorption intensity as percentage relative to baseline (no cells) as described before (T. Peters et al., Naunyn Schmiedebergs Arch Pharmacol. 2006, 372, 291-299.) Cell survival plotted against the decimal logarithm of drug concentration in μM (c (of compound x) in μM) and fitted to a sigmoidal dose-response curve using Graph Pad Prism 7.02 (GraphPad Software, San Diego, USA)."}, "[4]": {"system": "NCH517", "test": "Crystal violet proliferation assay, brain metastasis NCH517", "format": "cell-based, human", "settings": "brain metastasis cell line, 48 h, mean of three biological replicates ± standard deviation", "from_the_text": "(§2) Based on the remarkable results obtained with Compound 6, its anti-proliferative effects on a series of different cancer cell lines was investigated. To that end, in addition to the three glioblastoma cell lines described above, Compound 6 was employed on eleven other cancer cell lines including brain metastasis (NCH517, NCH604a and NCH466), meningioma (NCH93 and BenMen-1), IDH-mutant glioma (NCH511b, NCH1618 and NCH3763), and head and neck cancer cell lines (HNO210, HNO199 and HNO97) (Table 3).\n(§3) The effect of different compounds on cell growth was evaluated by the crystal violet method as described earlier (J. P. Rigalli et al., Cancer Lett. 2016, 376, 165-172). Briefly, cells were seeded in 96-well plates (10,000 cells/well). […] After 48 h of exposure extent of cell proliferation inhibition was determined by crystal violet staining of surviving cells. […]\nas §1"}, "[5]": {"system": "NCH604a", "test": "Crystal violet proliferation assay, brain metastasis NCH604a", "format": "cell-based, human", "settings": "brain metastasis cell line, 48 h, mean of three biological replicates ± standard deviation", "from_the_text": "as §2, §3, §1"}, "[6]": {"system": "NCH466", "test": "Crystal violet proliferation assay, brain metastasis NCH466", "format": "cell-based, human", "settings": "brain metastasis cell line, 48 h, mean of three biological replicates ± standard deviation", "from_the_text": "as §2, §3, §1"}, "[7]": {"system": "NCH93", "test": "Crystal violet proliferation assay, meningioma NCH93", "format": "cell-based, human", "settings": "meningioma cell line, 48 h, mean of three biological replicates ± standard deviation", "from_the_text": "as §2, §3, §1"}, "[8]": {"system": "BenMen-1", "test": "Crystal violet proliferation assay, meningioma BenMen-1", "format": "cell-based, human", "settings": "meningioma cell line, 48 h, mean of three biological replicates ± standard deviation", "from_the_text": "as §2, §3, §1"}, "[9]": {"system": "NCH551b", "test": "CellTiter-Glo proliferation assay, IDH-mutant glioma NCH551b", "format": "cell-based, human", "settings": "IDH-mutant glioma cell line, 48 h, mean of three biological replicates ± standard deviation", "from_the_text": "as §2\n(§4) To assess the effect of Compound 4 and Compound 6 on cell growth of glioma stem-like cells (GSC) and GSC lines derived from IDH-mutant gliomas, cellular ATP levels were measured using the luminescent CellTiter-Glo Assay (Promega Corp, Madison, WI). GCS spheroid cultures were gently dissociated and cell suspensions were seeded in 96-well tissue culture plates (8,000 cells/well, 100 μl/well). After a 24-hour incubation period without any compound freshly reconstituted compound in ten final concentrations ranging from 0.01 μM to 200 μM were added and cells were incubated for 48 hours.\n(§5) Before measurement, the plate was equilibrated at room temperature for 30 minutes. […] Next, the plate was incubated for 10 minutes at room temperature and finally, the luminescence was measured. […]"}, "[10]": {"system": "NCH1618", "test": "CellTiter-Glo proliferation assay, IDH-mutant glioma NCH1618", "format": "cell-based, human", "settings": "IDH-mutant glioma cell line, 48 h, mean of three biological replicates ± standard deviation", "from_the_text": "as §2, §4, §5"}, "[11]": {"system": "NCH3763", "test": "CellTiter-Glo proliferation assay, IDH-mutant glioma NCH3763", "format": "cell-based, human", "settings": "IDH-mutant glioma cell line, 48 h, mean of three biological replicates ± standard deviation", "from_the_text": "as §2, §4, §5"}, "[12]": {"system": "HNO210", "test": "Crystal violet proliferation assay, head and neck cancer HNO210", "format": "cell-based, human", "settings": "head and neck cancer cell line, 48 h, mean of three biological replicates ± standard deviation", "from_the_text": "as §2, §3, §1"}, "[13]": {"system": "HNO199", "test": "Crystal violet proliferation assay, head and neck cancer HNO199", "format": "cell-based, human", "settings": "head and neck cancer cell line, 48 h, mean of three biological replicates ± standard deviation", "from_the_text": "as §2, §3, §1"}, "[14]": {"system": "HNO97", "test": "Crystal violet proliferation assay, head and neck cancer HNO97", "format": "cell-based, human", "settings": "head and neck cancer cell line, 48 h, mean of three biological replicates ± standard deviation", "from_the_text": "as §2, §3, §1"}, "[15]": {"system": "NCH466", "test": "Annexin V apoptosis assay (flow cytometry), NCH466", "format": "cell-based, human", "settings": "drug concentration of 2 μM, 48 hours", "experimental": "(§6) For this purpose, cells were incubated with different concentrations of Compound 6 for 48 hours and subsequently analyzed by flow cytometry (see representative example in FIG. 4A). Annexin V and propidium iodide (PI) were used as indicators for apoptosis/necrosis.\n(§7) To quantitate the extent of apoptosis and necrosis, either annexin V staining combined with DAPI or double labeling of cells with annexin V and propidium iodide (PI) was used. The double labeling allows the distinction between apoptotic (annexin V^pos/DAPI^neg or annexin V^pos/PI^neg) and necrotic (annexin V^pos/DAPI^pos or annexin V^pos/PI^pos) cells. Cells were seeded in a 6-well plate (2.5×10^5/well) and left to attach overnight. […]\n(§8) After treatment supernatant containing apoptotic and necrotic cells was collected, cells were harvested, washed, and up to 1×10^6 cells were incubated with FITC-conjugated annexin V antibody diluted in 1:1000 DAPI solution following manufactures instructions (#51-65874X, BD Bioscienes, Franklin Lakes, USA) or incubated with FITC-conjugated annexin V antibody and PI for 15 min following manufacturer instructions (#51-65974X, BD Biosciences, Franklin Lakes, USA). Cells were acquired by flow cytometry using a BD LSRII flow cytometer (BD Bioscienes, Franklin Lakes, USA) and analyzed by FlowJo Software v7.6.5 (TreeStar, Ahland, USA)."}, "[16]": {"system": "NCH517", "test": "Annexin V apoptosis assay (flow cytometry), NCH517", "format": "cell-based, human", "settings": "drug concentration of 2 μM, 48 hours", "experimental": "as §6, §7, §8"}, "[17]": {"system": "NCH604a", "test": "Annexin V apoptosis assay (flow cytometry), NCH604a", "format": "cell-based, human", "settings": "drug concentration of 2 μM, 48 hours", "experimental": "as §6, §7, §8"}, "[18]": {"system": "NCH93", "test": "Annexin V apoptosis assay (flow cytometry), NCH93", "format": "cell-based, human", "settings": "drug concentration of 2 μM, 48 hours", "experimental": "as §6, §7, §8"}, "[19]": {"system": "head and neck cancer cell lines", "test": "Annexin V apoptosis assay (flow cytometry), head and neck cancer cell lines", "format": "cell-based, human", "settings": "drug concentration of 5 μM, 48 hours", "experimental": "as §6, §7, §8"}, "[20]": {"system": "cancer cell lines derived from brain metastases, meningiomas, IDH-mutant gliomas and head and neck cancers", "test": "Annexin V apoptosis assay (flow cytometry), all analyzed cell lines", "format": "cell-based, human", "settings": "48 hours (FIG. 4)", "experimental": "as §6, §7, §8"}, "[21]": {"system": "NCH82 cell line", "test": "Drug uptake kinetics by fluorescence microscopy", "format": "cell-based, human", "experimental": "Based on the observed high bio-activity and the spectroscopic properties of Compound 6 as an example of the present invention, the drug uptake kinetics was investigated in NCH82 cell line. To this end, cells were treated with increasing concentrations of Compound 6 and its drug uptake was monitored with a fluorescence microscope (excitation/emission 350/455 nm; data not shown).\nTo measure the uptake kinetics of compound 6 by NCH82 cells, they were seeded in a 96-well plate (5,000 cells/well) and after 24 h, cell culture medium was replaced with compound 6 or DMSO-containing medium (0.1, 1 and 10 μM). Images were taken with a fluorescence microscope (Olympus, Shinjuku, Japan) at 1 h, 24 h and 48 h after treatment initiation. A laser with an excitation/emission spectrum of 350/455 nm was used and images were taken with a 10× objective."}, "[22]": {"test": "Stability under controlled thermodynamic conditions upon repetitive cycles of illumination", "format": "physicochemical", "settings": "data not shown"}, "[23]": {"system": "cancer cell lines", "test": "Anti-proliferative effects on a series of different cancer cell lines", "format": "cell-based, human", "settings": "summary over all cell lines of Table 3; read-out: mean IC50 values in some cell lines", "from_the_text": "as §2, §3\nas §1, with “USA). […]” for “USA).”"}}, "data": [{"smiles": "CC(=O)OC[C@H]1O[C@@H]([S][Au-][P+]2(c3ccccc3)c3ccn(C)c3-c3cccc4cccc2c34)[C@H](OC(C)=O)[C@@H](OC(C)=O)[C@@H]1OC(C)=O", "note": "(stereo partly drawn) [Compound 6]", "values": [{"measurement": "IC50", "setting": "[1]", "result": 730, "unit": "nM"}, {"measurement": "IC50", "setting": "[2]", "result": 4, "unit": "µM"}, {"measurement": "IC50", "setting": "[3]", "result": 870, "unit": "nM"}, {"measurement": "IC50", "setting": "[4]", "result": "1600 ± 300", "unit": "nM"}, {"measurement": "IC50", "setting": "[5]", "result": "1860 ± 140", "unit": "nM"}, {"measurement": "IC50", "setting": "[6]", "result": "1010 ± 20", "unit": "nM"}, {"measurement": "IC50", "setting": "[7]", "result": "1350 ± 90", "unit": "nM"}, {"measurement": "IC50", "setting": "[8]", "result": "1320 ± 120", "unit": "nM"}, {"measurement": "IC50", "setting": "[9]", "result": "1230 ± 250", "unit": "nM"}, {"measurement": "IC50", "setting": "[10]", "result": 880, "unit": "nM"}, {"measurement": "IC50", "setting": "[11]", "result": "5.21 ± 0.31", "unit": "µM"}, {"measurement": "IC50", "setting": "[12]", "result": "1100 ± 80", "unit": "nM"}, {"measurement": "IC50", "setting": "[13]", "result": "2650 ± 250", "unit": "nM"}, {"measurement": "IC50", "setting": "[14]", "result": "5.51 ± 1.04", "unit": "µM"}, {"measurement": "cells in apoptosis/necrosis, NCH466", "setting": "[15]", "result": "more than 50%"}, {"measurement": "cells in apoptosis/necrosis, NCH517", "setting": "[16]", "result": "more than 50%"}, {"measurement": "cells in apoptosis/necrosis, NCH604a", "setting": "[17]", "result": "more than 50%"}, {"measurement": "cells in apoptosis/necrosis, NCH93", "setting": "[18]", "result": "more than 50%"}, {"measurement": "cells in apoptosis/necrosis, head and neck cancer cell lines", "setting": "[19]", "result": "more than 50%"}, {"measurement": "induction of apoptosis/necrosis in all analyzed cell lines", "setting": "[20]", "result": "able to induce apoptosis/necrosis"}, {"measurement": "time after treatment initiation at which dead cells were first observed", "setting": "[21]; 0.1 μM", "result": 48, "unit": "h"}, {"measurement": "time after which cell death could be observed", "setting": "[21]; 1 μM", "result": 24, "unit": "h"}, {"measurement": "stability upon repetitive cycles of illumination", "setting": "[22]", "result": "very high stability"}, {"measurement": "IC50", "setting": "[23]", "result": "~1500", "unit": "nM"}]}]}
